Measurements as given in patent US7858825B2, “Acid and base stable diphenylmethanol derivatives and methods of use” (Colorado State University Research Foundation, priority 2007, dated 2010).

How the values were obtained:
[1] = Stability and cleavage of linker 16 esters; format: physicochemical
Procedure: One of the linkers of the invention, (2-chloro-4-methoxyphenyl)(2,4-dichlorophenyl)methanol 16 was used to immobilize carboxylic acids. The linker was stable under a Boc-deprotection conditions (TsOH.H2O/THF—CH2Cl2). In addition, unlike photolytic (350 nm, 72 h) or Pd-mediated or base-catalyzed cleavage of linkers, the esters of linker 16 was efficiently be cleaved via volatile acids such as 30% TFA/CH2Cl2 or HF.pyridine within 1 h. The progress of each step was conveniently be monitored by LC-MS after the treatment of such Brønsted acids followed by evaporation of volatiles.

[2] = Cleavage (deprotection) of the esters 4d and of trifluoroacetate 5a; format: physicochemical
Description: Thus, compounds of the invention enabled a wide range of organic reactions for the generation of libraries of MraY inhibitors in solution (Scheme III). Compounds of the invention, e.g., (2,6-dicholoro-4-methoxyphenyl)(2,4-dichlorophenyl)methanol, can also be used as linkers to immobilize carboxylic acids, amines, alcohols, as well as other functional groups which can, however, be cleaved by 20% TFA.
The trifluoroacetate 5a was also stable under most acidic conditions tested in Table 1 and SiO2, but could easily be cleaved by aq NH3 in THF-MeOH within 3 h to regenerate 3d in quantitative yield (Scheme 2-2).
The ester of 3d was dissolved in 20% TFA in CH2Cl2 (0.3 M) and kept for 1 h at rt. Volatiles were evaporated in vaccuo to provide the carboxylic acid and 5a. The carboxylic acid was separated from 5d by a silica gel plug (10:1, hexanes:EtOAc to 5:1, CHCl3:MeOH) or a back-extraction procedure [solvent system: EtOAc-water (for the extraction of 5d under a basic condition (NaHCO3), CHCl3-water (for the extraction of the carboxylic acid under an acidic condition (dil. HCl)].

time for cleavage of the esters of the linker ([1]; 30% TFA/CH2Cl2 or HF.pyridine) [h]	stability of linker ([1]; Boc-deprotection conditions (TsOH.H2O/THF—CH2Cl2))	time for cleavage to regenerate 3d ([2]; aq NH3 in THF-MeOH) [h]	stability under acidic conditions ([2]; most acidic conditions tested in Table 1 and SiO2)	Structure (SMILES)
≤ 1	stable			COc1ccc(C(O)c2ccc(Cl)cc2Cl)c(Cl)c1 (stereo not shown) [compound 16, (2-chloro-4-methoxyphenyl)(2,4-dichlorophenyl)methanol]
		≤ 3	stable	COc1cc(Cl)c(C(OC(=O)C(F)(F)F)c2ccc(Cl)cc2Cl)c(Cl)c1 (stereo not shown) [5a, (2,6-dichloro-4-methoxyphenyl)(2,4-dichlorophenyl)methyl 2,2,2-trifluoroacetate]
